Data published in patent publication US10370324B2, “Phenyl and pyridinyl hydroxamic acids” (Acetylon Pharmaceuticals, Inc., priority 2016, dated 2019).

What was measured:
[1] = Rat pharmacokinetic studies; format: in vivo; details: male SD rats, IV 1 mg/kg, plasma
Protocol: Male SD rats were fasted overnight. Compounds of the invention were dissolved in dimethyl acetamide at 10 times the final concentration, then Solutol HS 15 (BASF) was added to a final concentration of 10%. Finally 80% saline was added and vortexed to achieve a clear solution. For the IV dosing three animals were injected via the foot dorsal vein with 1 mg/kg compound. For the PO dosing 5 mg/kg of compound was delivered by oral gavage. Blood was collected via the tail vein into K2EDTA tubes at 5 minutes, 15 minutes, 30 minutes, 1 hour, 2 hours, 4 hours, 8 hours and 24 hours after dosing. The blood was centrifuged at 2000 g for 5 minutes at 4° C. to obtain plasma. The plasma was extracted with acetonitrile and the level of compound was analyzed by LC/MS/MS. The level of compound in plasma was calculated from a standard curve in rat plasma. The IV clearance and area under the curve were calculated using WinNonLin software. The dose adjusted area under the curve for the IV and oral dosing were used to calculate the oral bioavailability.

[2] = molecular target: T1, HDAC6 (Homo sapiens, UniProt Q9UBN7); experiment: HDAC enzyme assay, HDAC6; format: biochemical; details: 2 ng/ml enzyme, 14 μM tripeptide substrate; given as a range
T1 construct: purchased BPS Biosciences
T1 sequence (Q9UBN7 1-1215): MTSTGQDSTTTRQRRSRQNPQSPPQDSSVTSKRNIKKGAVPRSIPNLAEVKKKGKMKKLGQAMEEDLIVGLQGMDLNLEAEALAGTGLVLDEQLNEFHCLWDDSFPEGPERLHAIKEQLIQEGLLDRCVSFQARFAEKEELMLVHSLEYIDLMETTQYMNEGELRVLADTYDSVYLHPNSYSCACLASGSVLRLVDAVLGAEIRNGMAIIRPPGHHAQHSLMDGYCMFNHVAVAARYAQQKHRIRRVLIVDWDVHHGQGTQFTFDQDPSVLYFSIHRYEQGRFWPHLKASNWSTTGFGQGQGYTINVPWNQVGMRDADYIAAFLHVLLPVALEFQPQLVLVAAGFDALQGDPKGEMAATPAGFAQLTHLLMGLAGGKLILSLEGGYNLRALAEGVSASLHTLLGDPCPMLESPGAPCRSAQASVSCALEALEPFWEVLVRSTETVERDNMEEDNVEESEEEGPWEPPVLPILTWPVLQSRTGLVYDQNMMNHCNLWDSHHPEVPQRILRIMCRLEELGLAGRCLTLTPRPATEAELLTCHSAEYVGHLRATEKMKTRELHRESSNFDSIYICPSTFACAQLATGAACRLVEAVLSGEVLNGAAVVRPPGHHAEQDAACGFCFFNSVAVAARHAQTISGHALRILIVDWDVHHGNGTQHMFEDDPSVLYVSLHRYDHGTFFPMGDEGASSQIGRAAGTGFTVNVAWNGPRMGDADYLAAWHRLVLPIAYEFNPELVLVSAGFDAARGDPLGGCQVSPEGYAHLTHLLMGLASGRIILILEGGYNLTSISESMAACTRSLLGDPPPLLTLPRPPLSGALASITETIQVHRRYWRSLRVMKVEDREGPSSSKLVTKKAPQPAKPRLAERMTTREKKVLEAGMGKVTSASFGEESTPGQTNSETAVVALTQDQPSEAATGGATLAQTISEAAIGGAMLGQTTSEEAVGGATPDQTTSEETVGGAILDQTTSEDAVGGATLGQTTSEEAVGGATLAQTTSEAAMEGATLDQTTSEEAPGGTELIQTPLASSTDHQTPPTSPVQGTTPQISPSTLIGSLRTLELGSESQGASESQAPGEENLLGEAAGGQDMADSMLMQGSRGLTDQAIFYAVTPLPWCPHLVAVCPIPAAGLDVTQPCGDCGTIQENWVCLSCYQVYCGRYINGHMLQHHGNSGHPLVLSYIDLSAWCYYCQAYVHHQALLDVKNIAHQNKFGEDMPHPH
Protocol: (§1) Compounds for testing were diluted in DMSO to 50 fold the final concentration and a ten-point three-fold dilution series was made. The compounds were diluted in assay buffer (50 mM HEPES, pH 7.4, 100 mM KCl, 0.001% Tween-20, 0.05% BSA, 20 ⊐M TCEP) to 6-fold their final concentration. The HDAC enzymes (purchased from BPS Biosciences) were diluted to 1.5-fold their final concentration in assay buffer. The tripeptide substrate and trypsin at 0.05 μM final concentration were diluted in assay buffer at 6-fold their final concentration. The final enzyme concentrations used in these assays were 3.3 ng/ml (HDAC1), 0.2 ng/ml (HDAC2), 0.08 ng/ml (HDAC3) and 2 ng/ml (HDAC6). The final substrate concentrations used were 16 μM (HDAC1), 10 μM (HDAC2), 17 μM (HDAC3) and 14 μM (HDAC6).
(§2) Five μL of compounds and 20 μL of enzyme were added to wells of a black, opaque 384 well plate in duplicate. Enzyme and compound were incubated together at room temperature for 10 minutes. Five μL of substrate was added to each well, the plate was shaken for 60 seconds and placed into a Victor 2 microtiter plate reader. The development of fluorescence was monitored for 60 min and the linear rate of the reaction was calculated. The IC50 was determined using Graph Pad Prism by a four parameter curve fit.

[3] = molecular target: T2, HDAC3 (Homo sapiens, UniProt O15379); experiment: HDAC enzyme assay, HDAC3; format: biochemical; details: 0.08 ng/ml enzyme, 17 μM tripeptide substrate; given as a range
T2 construct: purchased BPS Biosciences
T2 sequence (O15379 whole entry): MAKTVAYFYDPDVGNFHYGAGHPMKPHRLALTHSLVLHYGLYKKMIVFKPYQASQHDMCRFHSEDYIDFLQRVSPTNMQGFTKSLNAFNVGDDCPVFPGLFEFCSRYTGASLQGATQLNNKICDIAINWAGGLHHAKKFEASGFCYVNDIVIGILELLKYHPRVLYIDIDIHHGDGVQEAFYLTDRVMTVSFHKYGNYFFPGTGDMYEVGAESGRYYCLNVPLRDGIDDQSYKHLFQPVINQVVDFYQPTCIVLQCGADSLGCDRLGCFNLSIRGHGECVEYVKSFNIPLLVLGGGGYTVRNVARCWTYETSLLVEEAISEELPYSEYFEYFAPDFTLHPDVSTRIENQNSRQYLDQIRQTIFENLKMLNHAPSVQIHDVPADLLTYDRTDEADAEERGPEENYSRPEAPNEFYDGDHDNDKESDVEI
T2 sequence (Q9Y618 395-489 partner limits assumed): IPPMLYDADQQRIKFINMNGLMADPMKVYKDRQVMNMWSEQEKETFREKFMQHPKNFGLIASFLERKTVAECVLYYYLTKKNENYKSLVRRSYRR
Protocol: as §1, §2

[4] = molecular target: T3, HDAC1 (Homo sapiens, UniProt Q13547); experiment: HDAC enzyme assay, HDAC1; format: biochemical; details: 3.3 ng/ml enzyme, 16 μM tripeptide substrate; given as a range
T3 construct: purchased BPS Biosciences
T3 sequence (Q13547 whole entry): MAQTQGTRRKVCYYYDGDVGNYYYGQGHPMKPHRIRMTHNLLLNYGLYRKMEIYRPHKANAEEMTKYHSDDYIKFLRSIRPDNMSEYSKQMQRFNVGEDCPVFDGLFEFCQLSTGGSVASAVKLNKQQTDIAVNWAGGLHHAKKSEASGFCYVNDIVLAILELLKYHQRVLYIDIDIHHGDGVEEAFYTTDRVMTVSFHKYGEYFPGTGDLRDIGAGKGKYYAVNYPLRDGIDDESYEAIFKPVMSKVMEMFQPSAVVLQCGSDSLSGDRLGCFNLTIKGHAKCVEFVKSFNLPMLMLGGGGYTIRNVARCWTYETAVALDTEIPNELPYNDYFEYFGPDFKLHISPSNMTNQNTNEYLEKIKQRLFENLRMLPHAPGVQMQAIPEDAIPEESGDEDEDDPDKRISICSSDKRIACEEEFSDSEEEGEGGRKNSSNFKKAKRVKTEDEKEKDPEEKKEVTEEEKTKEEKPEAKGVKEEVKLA
Protocol: as §1, §2

[5] = molecular target: T4, HDAC2 (Homo sapiens, UniProt Q92769); experiment: HDAC enzyme assay, HDAC2; format: biochemical; details: 0.2 ng/ml enzyme, 10 μM tripeptide substrate; given as a range
T4 construct: purchased BPS Biosciences
T4 sequence (Q92769 whole entry): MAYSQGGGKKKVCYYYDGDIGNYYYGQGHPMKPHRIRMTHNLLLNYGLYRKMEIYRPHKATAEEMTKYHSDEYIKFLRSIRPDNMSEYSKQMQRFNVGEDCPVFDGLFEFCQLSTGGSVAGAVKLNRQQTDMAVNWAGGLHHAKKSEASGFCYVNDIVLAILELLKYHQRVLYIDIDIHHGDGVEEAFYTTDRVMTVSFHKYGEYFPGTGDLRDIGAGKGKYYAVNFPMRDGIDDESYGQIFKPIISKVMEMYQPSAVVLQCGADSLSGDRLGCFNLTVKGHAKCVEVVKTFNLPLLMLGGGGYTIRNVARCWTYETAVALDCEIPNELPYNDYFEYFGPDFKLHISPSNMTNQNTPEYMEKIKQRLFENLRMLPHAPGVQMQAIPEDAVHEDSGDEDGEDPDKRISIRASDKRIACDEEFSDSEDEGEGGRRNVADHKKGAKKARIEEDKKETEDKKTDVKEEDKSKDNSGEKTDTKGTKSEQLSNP
Protocol: as §1, §2

[6] = Mouse pharmacokinetic studies; format: in vivo; details: male C57BL/6 mice, intraperitoneal 5 mg/kg; for Brain AUC: brain homogenate; for AUC / Kp: mouse, ip; for AUC: plasma; for Kp: from AUC values of brain and plasma, read-out: Brain/plasma ratio
Protocol: Male C57BL/6 mice were fasted overnight. Compounds were dissolved in dimethyl acetamide at 10 times the final concentration, then Solutol HS 15 (BASF) was added to a final concentration of 10%. Finally 80% saline was added and vortexed to achieve a clear solution. Fifteen animals were injected intraperitonealy with 5 mg/kg compound. Blood was collected by retro-orbital bleed at 5 minutes, 15 minutes, 30 minutes, 1 hour, 2 hours, 4 hours, 8 hours and 24 hours after dosing. At 5 minutes, 30 minutes, 1 hour and 4 hours after dosing three animals per time point were sacrificed and brains were removed. The blood was centrifuged at 2000 g for 5 minutes at 4° C. to obtain plasma. Brain samples were homogenized in PBS. The plasma and brain homogenate were extracted with acetonitrile and the level of compound was analyzed by LC/MS/MS. The level of compound in plasma was calculated from a standard curve in rat plasma and the level in brain was calculated from a standard curve in brain homogenate. The area under the curve in plasma and brain were calculated using WinNonLin software. The brain to plasma ratio was determined using the area under the curve values for the two compartments.

| clearance [1] [mL/min/kg] | IC50 [2] [nM] | IC50 [3] [nM] | IC50 [4] [nM] | IC50 [5] [nM] | Brain AUC [6] [ng·h/mL] | AUC [6] [ng·h/mL] | Kp [6] | SMILES |
| --- | --- | --- | --- | --- | --- | --- | --- | --- |
| 167 to 333 | 1 to 6 | 500 to 800 | 500 to 800 | 500 to 800 | – | – | – | COc1ccc(F)cc1CNc1ccc(C(=O)NO)cc1 [Compound 005] |
| 91.7 to 117 | 15 to 25 | 1200 to 1300 | 700 to 800 | 800 to 900 | – | – | – | O=C(NO)c1ccc(NCc2ccccc2)cc1 [Compound 011] |
| – | 4 to 8 | 100 to 200 | 100 to 200 | 100 to 200 | – | – | – | O=C(NO)c1ccc(NCc2cc(Cl)ccc2Cl)cc1 [Compound 004] |
| – | 4 to 8 | 700 to 800 | 450 to 600 | 450 to 600 | – | – | – | O=C(NO)c1ccc(NCc2cc(F)ccc2F)cc1 [Compound 007] |
| – | – | – | – | – | 100 to 150 | 75 to 125 | 1 to 3 | O=C(NO)c1ccc(NCc2ccccc2)cn1 [Compound 012] |
| 16.7 to 83.3 | 1 to 6 | 200 to 400 | 200 to 400 | 200 to 400 | – | – | – | COc1ccc(Cl)cc1CNc1ccc(C(=O)NO)cc1 [Compound 001] |
| 50 to 117 | 0.5 to 2.5 | 400 to 500 | 50 to 100 | 250 to 350 | – | – | – | O=C(NO)c1ccc(NC2(c3ccccc3)CC2)cc1 [Compound 009] |

Continued, molecule first:

| SMILES | clearance [1] [mL/min/kg] | IC50 [2] [nM] | IC50 [3] [nM] | IC50 [4] [nM] | IC50 [5] [nM] | Brain AUC [6] [ng·h/mL] | AUC [6] [ng·h/mL] | Kp [6] |
| --- | --- | --- | --- | --- | --- | --- | --- | --- |
| O=C(NO)c1ccc(NC2(c3cc(F)ccc3F)CCOCC2)cc1 [Compound 008] | 83.3 to 167 | 0.1 to 1 | 1000 to 1100 | 150 to 250 | 200 to 300 | – | – | – |
| COc1ccc(OC)c(CNc2ccc(C(=O)NO)cc2)c1 [Compound 006] | – | 30 to 40 | 900 to 1100 | 450 to 600 | 900 to 1100 | – | – | – |
| O=C(NO)c1ccc(NC2(c3ccccc3)CCCCC2)cc1 [Compound 010] | 33.3 to 66.7 | 4 to 8 | 6000 to 7000 | 1000 to 2000 | 1500 to 2000 | – | – | – |
| O=C(NO)c1ccc(N(c2ccccc2)c2ccccc2)cn1 [Compound 013] | – | – | – | – | – | 600 to 800 | 150 to 250 | 2 to 6 |
| O=C(NO)c1ccc(NC(c2ccccc2)c2ccccc2)cn1 [Compound 002] | – | – | – | – | – | 450 to 600 | 200 to 250 | 1 to 5 |
